# A melting point compilation (Tetko et al.; mined from patent text by program, amines drawn as free bases though some values may be those of a salt)
row,Structure (SMILES),melting point [°C]
1,N#CC1Cc2ccc([N+](=O)[O-])cc2C1 (configuration not stated),80 to 82
2,Cc1c(C(=O)c2cccnc2)sc2cc(Br)ccc12,110 to 111
3,Cc1nc(NC(=O)C2c3ccccc3Oc3ccccc32)no1,186
4,Clc1nccnc1Sc1ccccc1,100 to 111
5,O=C1c2ccc(O)cc2OCN1CCO,182 to 184
6,OC(CN1CCC(C(O)c2ccccc2)CC1)c1ccccc1 (configuration not stated),104
7,CCCOc1ccc(S(N)(=O)=O)cc1C1=NC(=O)C2=NC=NC2=N1,276 to 278
8,Cc1c(C(=O)Nc2ccc(N3CCN(CCCO)CC3)c(C#N)c2)cnn1-c1ccc(Cl)cc1,213
9,O=C(O)c1n[nH]c(=O)c2cc(F)ccc12,222 to 224
10,CCOC(=O)C=Cc1cnc(N(Cc2ccc(OC)c(OC)c2)C(=O)OC(C)(C)C)n2nc(-c3ccco3)nc12,124 to 129
11,CC(C)Oc1cc(F)c2c(c1)Oc1cc(F)ccc1S2(=O)=O,148 to 151
12,COc1ccc(C2CCC(c3ccc4ccccc4c3)O2)cc1OC (configuration not stated),74 to 77
13,Cc1cc(C)c2c(c1O)C(=O)C(c1ccccc1)C2 (configuration not stated),90.5 to 91
14,CC(C)(C)OC(=O)Nc1cccc(C2(O)CCOCC2)c1,140 to 142
15,O=C1CCc2c1cccc2C(F)(F)F,32 to 36
16,CC(C)(Oc1ccc(CCC(=O)c2cc(-c3ccc(C(F)(F)F)cc3)cs2)c(Cl)c1Cl)C(=O)O,99 to 101
17,CC(C)(C)OC(=O)N[C@@H](Cc1ccccc1)[C@H]1CO1,126
18,CN1C(=S)C(CCC(=O)O)c2ccccc21 (configuration not stated),126 to 128
19,O=C1OC2(CCN(C(=O)Nc3cnc(-c4ccccc4)cn3)CC2)c2cc(O)ccc21,206 to 208
20,O=C(Cc1ccccc1)Nc1ccccc1SCc1ccc(Cl)cc1,100 to 101
21,Nc1nc(N)c(N=O)c(OCC2CC=CCC2)n1 (configuration not stated),237
22,Cc1ccc2cc(C=O)ccc2c1,110 to 111
23,CC1(C)CCc2c(N3CCOCC3)nc3sc4c(NCCCN5CCCC5=O)ncnc4c3c2C1,210
24,Fc1ccc(-c2cc3ncnc(Nc4ccc5[nH]ccc5c4)c3s2)cc1Cl,175 to 183

row,Structure (SMILES),melting point [°C]
1,COc1ccc(NC(=N)c2ccccn2)cc1,73 to 75
2,O=P(O)(O)C(O)(CCCc1ccc(Cl)cc1)P(=O)(O)O,181
3,CC(=O)Nc1cccc2c1C(=O)c1c-2n[nH]c1-c1ccc(O)cc1,> 300
4,Oc1ccccc1-c1ncc2ncc(Cl)cc2n1,211 to 212
5,CCOC1C(NC(C)=O)CC(OC)OC1C (configuration not stated),199 to 200
6,COc1cc(C(=O)c2ccnn2C)c(Cl)c(Cl)c1OC,99.5 to 101
7,CC(C)(C)C(=O)N(O)Cc1ccccc1Cl,100 to 102
8,CC(CCCO)C1CCC2C3CCC4CC(O)CCC4(C)C3CC(O)C12C (configuration not stated),110 to 116
9,CCCCCCCCSc1ccc(CC(NC(C)=O)(C(=O)OCC)C(=O)OCC)cc1,82 to 84
10,CCCCc1cnc(C2=NC(C)(C(C)C)C(=O)N2)c(C(=O)O)c1 (configuration not stated),152 to 154
11,O=C1N(Cc2ccccn2)c2ccccc2C12COc1cc3[nH]ncc3cc12 (configuration not stated),117 to 119
12,Cc1nc2c3c(ccn2c1C)C(=O)C(O)C(c1ccsc1)N3 (configuration not stated),222 to 225
13,Cc1csc(C)c1CO,80 to 81
14,Cc1c(C)c2c(c(C)c1N)CC(C)(CN1CCC(NC(c3ccc(F)cc3)c3ccc(F)cc3)CC1)O2 (configuration not stated),133 to 134
15,O=C(N[C@H]1CC[C@H](CCN2CCN(c3nccc4c3OCC4)CC2)CC1)c1ccc(-n2cccn2)cc1,226
16,CC(=O)SCSc1cnnn1C,37 to 38
17,CN(C)S(=O)(=O)n1c(N)nc2ccc(C(=CCl)c3ccccc3)cc21,207 to 215
18,CNc1ccc(F)c2c1C(=O)c1ccccc1-2,139 to 144
19,CCCC(C)(C)C[C@@H](CC(=O)OC(C)(C)C)C(=O)N1C(=O)O[C@H](c2ccccc2)[C@@H]1C,83 to 85
20,CCCc1nc(C(O)C(C)(C)C)c(C#N)n1Cc1ccc(-c2ccccc2-c2nnnn2C(c2ccccc2)(c2ccccc2)c2ccccc2)cc1 (configuration not stated),115 to 117
21,CON1C(=O)CC2(CCN(C(=O)CCN3C=CCC(C(N)=O)=C3)CC2)C1=O,64 to 80
22,N#CCc1cccc(CCc2ccccc2C(=O)O)c1,113 to 120
23,CC(C)CN(CC(C)C)c1ccc(C(=O)c2ccccc2)cc1N,59 to 60
24,CCCCOc1ccc(Nc2cc(Nc3ccc4c(c3)OCCO4)c(F)cn2)cc1,133 to 135

row,Structure (SMILES),melting point [°C]
1,Cc1ccnc(C)c1Cn1nnnc1-c1cccc(Cl)c1Cl,146 to 148
2,COCOc1cc(OC)cc(C)c1C(=O)c1ccc(OCc2ccccc2)cc1,49 to 50
3,COc1ccc(CN2CCc3c(cnc4[nH]ncc34)C2)cc1,184 to 186
4,O=C(Nc1nnn[nH]1)c1ccc(OCCn2ccnc2)cc1,263
5,Cc1cc(C(=O)O)cc2c1[nH]c1ccccc12,> 240
6,O=C1CCC2CCC(=O)N12,179 to 182
7,COC(=O)C(C)(C)Sc1cccc(OCc2ccc(-c3ccc([N+](=O)[O-])cc3)o2)c1,81 to 82
8,CCOC(=O)c1c(CCN(CC)CC)nc2cc(OC)c(OC)cc2c1-c1ccc(OC)c(OC)c1,76 to 78
9,O=C1c2ccccc2C(=O)N1[C@@H]1C[C@H](O)[C@@H](O)[C@H]1O (racemic),175 to 176
10,Cn1cc(Cc2ccccc2)c(=O)c(-c2cccc(C(F)(F)F)c2)c1,98 to 100
11,COc1cc(-c2ccc(Br)cc2)oc1-c1ccc(Br)cc1,112 to 113
12,COC(c1ccc(Cl)cc1)(c1cc2c3c(c1)c(-c1cccc(Cl)c1)cc(=O)n3CCC2)c1nncn1C (configuration not stated),132
13,Cc1cc(-c2nc[nH]n2)ccc1-c1cnc2[nH]c(=O)n(CCC3CCOCC3)c2n1,258 to 260
14,CS(=O)(=O)c1ccc(C2=C(c3ccc(F)cc3)C(=O)OC2)cc1,166 to 167
15,O=C1Cc2cccc(Oc3ccccc3Cl)c2O1,118 to 120
16,COc1ccc(N(C(=O)CN2C(=O)C(Cc3nn(Cc4ccccc4)c4ccccc34)(OC)C(=O)N(c3cccnc3)c3ccccc32)C(C)C)cc1 (configuration not stated),223 to 224
17,O=C(c1ccccc1)c1cccnc1-c1nc(Nc2ccc(Cl)cc2)c2ccccc2n1,190 to 192
18,CC(C)(C)C(NC(=O)Cc1ccc(Cl)cc1)NC(=NC#N)c1cccc2ncccc12 (configuration not stated),218 to 220
19,"CCCN1C(=O)C(NC(=O)Nc2cccc(N(C)c3nnn[nH]3)c2)N=C(N2CCN(C)CC2)c2ccccc21 (single isomer, unassigned; (-))",141 to 142
20,O=C1C=C/C(=C/c2ccc(F)cc2)O1,140 to 142
21,CC(C)OC(=O)C(=C1SCCS1)c1ccc(F)cc1,106 to 107
22,O[C@@H]1[C@H](O)[C@H](O)CO[C@H]1n1c(Br)nc2cc(Cl)c(Cl)cc21,164 to 165
23,CC(Oc1ccc(-c2ccc(Cl)cc2)cc1)(C(N)=O)C(F)(F)F (configuration not stated),141 to 142
24,O=C1c2ccccc2C(=O)N1CCCSC1N=CC=CN1NC(=S)NCC(F)(F)F (configuration not stated),214 to 215
